Test results: US20240208895A1, “BRANCHED-CHAIN AMINO ACID DERIVATIVES TO TREAT DISEASE” (INTRABIO LTD., priority 2021, published 2024)

Molecular target: T1, PepT1 (Homo sapiens, UniProt P46059)
T1 construct: expressed in transfected cells
T1 sequence (P46059 1-708): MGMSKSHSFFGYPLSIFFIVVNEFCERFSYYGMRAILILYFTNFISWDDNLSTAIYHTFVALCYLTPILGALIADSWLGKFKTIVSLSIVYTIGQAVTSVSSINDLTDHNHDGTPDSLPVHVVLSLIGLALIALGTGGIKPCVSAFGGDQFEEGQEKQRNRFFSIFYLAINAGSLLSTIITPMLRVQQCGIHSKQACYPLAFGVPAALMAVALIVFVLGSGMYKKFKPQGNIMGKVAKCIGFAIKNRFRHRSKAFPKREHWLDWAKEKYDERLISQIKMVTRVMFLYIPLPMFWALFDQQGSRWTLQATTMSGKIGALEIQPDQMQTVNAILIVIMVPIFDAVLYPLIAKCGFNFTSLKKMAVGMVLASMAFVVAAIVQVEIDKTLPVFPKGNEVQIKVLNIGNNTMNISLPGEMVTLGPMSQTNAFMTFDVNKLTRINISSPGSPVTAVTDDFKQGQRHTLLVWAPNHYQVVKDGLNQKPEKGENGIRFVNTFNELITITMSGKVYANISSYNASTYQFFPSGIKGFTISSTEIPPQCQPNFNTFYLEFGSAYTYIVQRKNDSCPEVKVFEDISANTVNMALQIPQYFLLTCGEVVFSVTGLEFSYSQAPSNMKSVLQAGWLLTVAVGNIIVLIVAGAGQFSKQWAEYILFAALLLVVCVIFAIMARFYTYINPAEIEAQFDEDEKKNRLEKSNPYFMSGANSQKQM
Assay: Inhibition of PepT1 uptake of known substrate Gly-Sar
Format: cell-based
Settings: probe substrate Gly-Sar 50 μM
Description: FIG. 2(d) is a line graph showing the concentration-inhibition curves for the inhibition of uptake of known substrate dipeptide Gly-Sar (50 μM) for PepT1. DMSO (0.5%) was the solvent control (SC) and the known inhibitor for the positive control (PC) was losartan (200 μM). Data were fit to either the Michaelis-Menten equation for uptake or the Hill equation for inhibition using the solvent control to define the top and the positive control inhibitor to define the bottom. Symbols represent the mean±SEM, n=3.
The known probe substrates used as positive controls are 3 μM chlorothiazide for OAT1, 2 μM estrone-3-sulfate for OAT3, 10 μM gabapentin for LAT1, 50 μM Gly-Sar for PepT1, 500 μM thiophene-2-glyoxylic acid for MCT1.
The IC50 value for the test item is determined by fitting the Hill equation in the following form:
where A % is the percent activity remaining (the mean cellular uptake observed in the solvent control sample set to 100% and the mean cellular uptake observed in the presence of the positive control inhibitor set to 0%), Top and Bottom are the upper and lower plateau of A %. [I] is the inhibitor concentration and IC50 is the inhibitor concentration where the remaining activity is at the midpoint between the Top and Bottom.

`CC(=O)N[C@@H](CC(C)C)C(=O)O` [N-acetyl-L-leucine] showed an IC50 of 740 µM.
